# Test results from publication PMC10892120, “Design, Synthesis and Biological Assessment of N′-(2-Oxoindolin-3-ylidene)-6-methylimidazo[2,1-b]thiazole-5-carbohydrazides as Potential Anti-Proliferative Agents toward MCF-7 Breast Cancer” (Pharmaceuticals, 2024).
# Where two headings read alike, the source gives them in different places.
# Experiments:
# MCF-7 breast cell line = experiment: MTT assay, anti-proliferative activity toward MCF-7; assay type: cell-based; conditions: Homo sapiens, MCF7
# Protocol: . The developed compounds were evaluated in vitro using the MTT cell viability assay following the published techniques (Supplementary Data, page 42). […]
# (§1) The 96 well tissue culture plate was seeded with 1 X 10^5 cells / ml (100 ul / well) and cultured at 37 degrees Celsius for 24 hours to form a full monolayer sheet. After forming a confluent sheet of cells, growth medium was decanted from 96 well micro titer plates, the cell monolayer was washed twice with wash media, and two-fold dilutions of the tested sample were prepared in RPMI medium with 2% serum (maintenance medium). In each well, 0.1 ml of each dilution was examined, with three wells serving as controls and receiving only maintenance media.
# (§2) The plate was incubated at 37 degrees Celsius and then analyzed. Cells were examined for any physical evidence of toxicity, such as partial or total monolayer loss, rounding, shrinkage, or cell granulation. MTT solution (5mg/ml in PBS) was prepared (BIO BASIC CANADA INC), and 20ul MTT solution was added to each well. Shake the MTT into the medium for 5 minutes at 150rpm on a shaking table. Incubate for 4 hours (37°C, 5% CO2) to allow the MTT to be digested. Remove the media. (If required, dry plate on paper towels to remove residue. In 200ul DMSO, resuspend formazan (MTT metabolic product). Shake at 150rpm for 5 minutes to properly mix the formazan into the solvent. At 560nm, measure optical density and subtract background at 620nm. The optical density should be proportional to the number of cells. MCF-7 and MCF-10A cell lines were provided with 10% fetal bovine serum (FBS, Sigma-Aldrich, MO, USA). Data are presented as the mean of the IC50 values ± SD from three different experiments. […]
# MCF-7 cell line = conditions: cited from earlier work
# MCF-10A = experiment: MTT assay, cytotoxicity toward MCF-10A; assay type: cell-based; conditions: Homo sapiens
# Protocol: The developed compounds were evaluated in vitro using the MTT cell viability assay following the published techniques (Supplementary Data, page 42). […]
# as §1, §2
# VEGFR-2 = VEGFR-2 (Homo sapiens, UniProt P35968); experiment: In vitro VEGFR-2 kinase inhibition assay; assay type: biochemical; conditions: mean ± SD of three experiments
# Sequence of VEGFR-2 (P35968 20-1356): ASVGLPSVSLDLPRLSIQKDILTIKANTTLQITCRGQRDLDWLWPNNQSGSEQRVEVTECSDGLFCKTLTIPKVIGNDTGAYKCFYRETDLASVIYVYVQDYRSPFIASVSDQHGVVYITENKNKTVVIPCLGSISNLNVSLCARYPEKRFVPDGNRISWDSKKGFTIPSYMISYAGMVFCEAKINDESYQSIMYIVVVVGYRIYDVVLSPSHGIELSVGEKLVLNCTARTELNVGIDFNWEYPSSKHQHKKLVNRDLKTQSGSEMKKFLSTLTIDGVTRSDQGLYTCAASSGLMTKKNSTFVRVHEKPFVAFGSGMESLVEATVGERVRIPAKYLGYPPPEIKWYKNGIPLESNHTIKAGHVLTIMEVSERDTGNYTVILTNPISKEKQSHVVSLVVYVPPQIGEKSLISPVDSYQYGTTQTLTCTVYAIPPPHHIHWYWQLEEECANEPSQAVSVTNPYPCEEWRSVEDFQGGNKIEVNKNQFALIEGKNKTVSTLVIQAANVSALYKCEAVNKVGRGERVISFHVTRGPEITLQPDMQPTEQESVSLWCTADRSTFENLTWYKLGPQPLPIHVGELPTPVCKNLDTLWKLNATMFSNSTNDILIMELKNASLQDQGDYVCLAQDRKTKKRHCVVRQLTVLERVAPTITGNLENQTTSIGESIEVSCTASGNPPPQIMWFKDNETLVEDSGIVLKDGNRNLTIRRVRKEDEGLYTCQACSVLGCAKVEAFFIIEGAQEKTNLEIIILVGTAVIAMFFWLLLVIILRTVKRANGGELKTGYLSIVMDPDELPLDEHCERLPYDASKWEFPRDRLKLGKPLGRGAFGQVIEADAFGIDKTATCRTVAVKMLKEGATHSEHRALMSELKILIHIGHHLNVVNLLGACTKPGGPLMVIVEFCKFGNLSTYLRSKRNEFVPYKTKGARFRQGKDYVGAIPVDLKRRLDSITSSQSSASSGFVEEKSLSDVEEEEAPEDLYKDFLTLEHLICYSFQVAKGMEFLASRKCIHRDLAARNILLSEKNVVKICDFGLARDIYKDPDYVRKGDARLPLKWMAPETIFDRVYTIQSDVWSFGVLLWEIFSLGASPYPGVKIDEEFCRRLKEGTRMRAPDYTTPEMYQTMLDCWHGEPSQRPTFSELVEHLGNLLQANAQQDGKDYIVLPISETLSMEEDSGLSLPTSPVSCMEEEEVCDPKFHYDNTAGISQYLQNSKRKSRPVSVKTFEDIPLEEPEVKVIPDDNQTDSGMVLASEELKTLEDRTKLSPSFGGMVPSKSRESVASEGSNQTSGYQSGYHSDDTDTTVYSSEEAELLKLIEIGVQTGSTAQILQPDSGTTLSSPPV
# [1] = MCF-7 cell line, MTT assay, mean ± SD of three experiments, read-out: IC50
# [2] = MTT assay, mean ± SD of three experiments, read-out: IC50
Compound,IC50 (MCF-7 breast cell line) [µM],melting point [°C],IC50 (MCF-7 breast cell line; [1]) [µM],also measured
"CCCCN1C(=O)/C(=N\NC(=O)c2c(C)nc3sccn23)c2cc(Br)ccc21 [Compound 6l, N′-(5-Romo-1-butyl-2-oxoindolin-3-ylidene)-6-methylimidazo[2,1-b]thiazole-5-carbohydrazide]",52.6 ± 2.36,237 to 238,–,–
"Cc1nc2sccn2c1C(=O)NN=C1C(=O)Nc2ccc(Cl)cc21 [Compound 6c, N′-(5-Chloro-2-oxoindolin-3-ylidene)-6-methylimidazo[2,1-b]thiazole-5-carbohydrazide]",–,292 to 293,43.1 ± 3.69,–
"CCCN1C(=O)C(=NNC(=O)c2c(C)nc3sccn23)c2cc(Cl)ccc21 [Compound 6g, N′-(5-Chloro-2-oxo-1-propylindolin-3-ylidene)-6-methylimidazo[2,1-b]thiazole-5-carbohydrazide]",52.5 ± 1.26,254 to 255,–,–
"Cc1ccc(NC(=O)Nc2c(C)nc3sccn23)cc1 [Compound 8b, 1-(6-Methylimidazo[2,1-b]thiazol-5-yl)-3-(p-tolyl)urea]",–,282 to 283,115 ± 4.99,–
O=C1Nc2ccccc2/C1=N/N=C/c1ccc[nH]1 [VI],–,–,–,IC50 (MCF-7 cell line; MCF-7 cancerous cell line): 6.25 µM
"Cc1nc2sccn2c1C(=O)NN=C1C(=O)Nc2ccc(Br)cc21 [Compound 6d, N′-(5-Bromo-2-oxoindolin-3-ylidene)-6-methylimidazo[2,1-b]thiazole-5-carbohydrazide]",–,296 to 297,22.8 ± 1.38,–
"Cc1nc2sccn2c1NC(=O)Nc1ccc(S(N)(=O)=O)cc1 [Compound 8g, 4-(3-(6-Methylimidazo[2,1-b]thiazol-5-yl)ureido)benzenesulfonamide]",–,283 to 284,41.6 ± 1.59,–
"CCCN1C(=O)C(=NNC(=O)c2c(C)nc3sccn23)c2cc(Br)ccc21 [Compound 6h, N′-(5-Bromo-2-oxo-1-propylindolin-3-ylidene)-6-methylimidazo[2,1-b]thiazole-5-carbohydrazide]",74.3 ± 2.19,261 to 262,–,–
"Cc1nc2sccn2c1NC(=O)Nc1ccccc1 [Compound 8a, 1-(6-Methylimidazo[2,1-b]thiazol-5-yl)-3-phenylurea]",–,287 to 288,110 ± 4.62,–
"CCCN1C(=O)C(=NNC(=O)c2c(C)nc3sccn23)c2ccccc21 [Compound 6e, 6-Methyl-N′-(2-oxo-1-propylindolin-3-ylidene)imidazo[2,1-b]thiazole-5-carbohydrazide]",61.4 ± 3.15,256 to 257,–,–
"CNC(=O)c1cc(Oc2ccc(NC(=O)Nc3ccc(Cl)c(C(F)(F)F)c3)cc2)ccn1 [Sorafenib (I), Sorafenib, reference compound]",–,–,7.55 ± 0.4,IC50 (MCF-10A; [2]): 22.4 ± 1.29 µM
"Cc1nc2sccn2c1NC(=O)Nc1ccc(F)cc1 [Compound 8d, 1-(4-Fluorophenyl)-3-(6-methylimidazo[2,1-b]thiazol-5-yl)urea]",–,281 to 282,72.3 ± 4.71,–
COc1ccc(-c2nc(N/N=C3/C(=O)Nc4ccc(Cl)cc43)c3ccccc3n2)cc1OC [VIII],–,–,–,IC50 (MCF-7 cell line; MCF-7 cancerous cell line): 2.1 µM
"Cc1nc2sccn2c1NC(=O)Nc1ccc(Br)cc1 [Compound 8f, 1-(4-Bromophenyl)-3-(6-methylimidazo[2,1-b]thiazol-5-yl)urea]",–,288 to 289,31.1 ± 2.47,–
"COc1ccc(NC(=O)Nc2c(C)nc3sccn23)cc1 [Compound 8c, 1-(4-Methoxyphenyl)-3-(6-methylimidazo[2,1-b]thiazol-5-yl)urea]",–,284 to 285,106 ± 5.32,–
"CCCCN1C(=O)C(=NNC(=O)c2c(C)nc3sccn23)c2cc(Cl)ccc21 [Compound 6k, N′-(1-Butyl-5-chloro-2-oxoindolin-3-ylidene)-6-methylimidazo[2,1-b]thiazole-5-carbohydrazide]",42.7 ± 2.01,224 to 225,–,–
"CCCCN1C(=O)C(=NNC(=O)c2c(C)nc3sccn23)c2cc(F)ccc21 [Compound 6j, N′-(1-Butyl-5-fluoro-2-oxoindolin-3-ylidene)-6-methylimidazo[2,1-b]thiazole-5-carbohydrazide]",11.7 ± 0.52,237 to 238,–,IC50 (MCF-10A): 47.7 ± 0.53 µM; IC50 (VEGFR-2): 1.51 ± 0.06 µM
"Cc1nc2sccn2c1C(=O)NN=C1C(=O)Nc2ccc(F)cc21 [Compound 6b, N′-(5-Fluoro-2-oxoindolin-3-ylidene)-6-methylimidazo[2,1-b]thiazole-5-carbohydrazide]",–,> 300,11.5 ± 0.52,IC50 (MCF-10A; [2]): 125 ± 2.7 µM; IC50 (VEGFR-2): 3.85 ± 0.15 µM
"Cc1nc2sccn2c1C(=O)NN=C1C(=O)Nc2ccccc21 [Compound 6a, 6-Methyl-N′-(2-oxoindolin-3-ylidene)imidazo[2,1-b]thiazole-5-carbohydrazide]",–,> 300,24 ± 0.67,–
"Cc1nc2sccn2c1NC(=O)Nc1ccc(Cl)cc1 [Compound 8e, 1-(4-Chlorophenyl)-3-(6-methylimidazo[2,1-b]thiazol-5-yl)urea]",–,285 to 286,35.7 ± 3.32,–
"CCCN1C(=O)C(=NNC(=O)c2c(C)nc3sccn23)c2cc(F)ccc21 [Compound 6f, N′-(5-Fluoro-2-oxo-1-propylindolin-3-ylidene)-6-methylimidazo[2,1-b]thiazole-5-carbohydrazide]",82.5 ± 2.75,243 to 244,–,–
COc1cc(C(=O)/C=C/c2c(C(F)(F)F)nc3sccn23)cc(OC)c1OC [IX],–,–,–,IC50 (MCF-7 cell line; MCF-7 cell line): 0.794 µM
